Measurements as given in patent publication EP2012792B1, “USE OF A COMPOUND INDUCING AN INCREASE OF FREE SEROTONIN RATE IN THE BODY, FOR PREPARING A MEDICINE FOR TREATING SKELETAL MUSCLE DEGENERATION OF GENETIC ORIGIN” (Association Française contre les Myopathies, priority 2006, dated 2007).
Counter-ions that a name gives are not always drawn.

Columns and labels:
[1] = system: souche de nématode dépourvue de dystrophine; assay: Muscle degeneration and paralysis test in dystrophin-deficient nematode strain (degenerative myopathy model); assay type: in vivo, Caenorhabditis elegans; details: 7 days of culture at 15°C; for Diminution de la dégénérescence en %: untreated = 0; for Pourcentage d'animaux paralysés à J7: untreated = 100
Protocol: Les composés ont été testés sur une souche de nématode dépourvue de dystrophine (Gieseler et al., Current Biology, 2000, vol. 10, p1092-1097) et (Ségalat, Neuromuscular Disorders, 2002, Suppl: S105-9). Cette souche est utilisée comme modèle de myopathie dégénérative. Dans cette souche, jusqu'à 30% des cellules musculaires servant à la locomotion (muscles longitudinaux) dégénèrent à l'état adulte (7 jours à 15°C), ce qui se traduit par une paralysie progressive des animaux.
Les composés sont administrés par mélange avec la gélose sur laquelle sont cultivés les animaux. Ils pénètrent par diffusion à travers la cuticule des animaux.
L'effet des composés sur la dégénérescence musculaire est évalué par 1) l'observation du phénotype des animaux (paralysie), et 2) par l'examen cytologique de la dégénérescence musculaire au moyen de marqueurs musculaires : rodamine-phalloidine et anticorps anti-myosine. Cet examen permet de compter le nombre de cellules musculaires en dégénérescence ou mortes (Gieseler et al., 2000, supra).

[2] = system: souris mdx (génotype C57/BL6 mdx5cv); assay: mdx mouse: number of centronucleated fibres (test of Shavlakadze et al.); assay type: in vivo; details: p<0,1%
Protocol: (§1) J. Pathol. […] 2002 Aug; 444(5), 634-43. […] 2000 Sep; 11(9), 725-8.
(§2) Elles sont testées à 6 semaines.
(§3) Il a également été démontré que la Fluoxetine chlorhydrate (11 mg/kg/jour), réduit le nombre de fibres centronucléées de 20% environ (p<0,1%).

[3] = system: protéolyse du muscle de C. elegans; assay: Muscle proteolysis model of C. elegans representative of cachexia (protocol of Zdinak et al.); assay type: in vivo; details: relative to control; concentration not given
Text: c) Concernant l'action sur la cachexie, il a également pu être montré sur un modèle de protéolyse du muscle de C. elegans representatif de la cachexie, et en utilisant le protocole décrit par Zdinak et al., dans Transgene-coded chimeric proteins as reporters of intracellular proteolysis: starvation-induced catabolism of a lacZ fusion protein in muscle cells of Caenorhabditis elegans, J Cell Biochem. 1997 Oct 1;67(1):143-53 que la sérotonine et l'imipramine chlorhydrate réduisent fortement cette protéolyse (20% de la protéolyse du témoin dans les 2 cas).

[4] = system: souris mdx (génotype C57/BL6 mdx5cv); assay: mdx mouse: histology, fibre size dispersion; assay type: in vivo; details: 40mg/jour/kg oral in food, treated from 2 to 6 weeks of age, tested at 6 weeks; versus untreated animals
Text: as §1, §2

[5] = system: souris mdx (génotype C57/BL6 mdx5cv); details: 40mg/jour/kg oral in food, treated from 2 to 6 weeks of age
Text: Les tests effectués chez la souris sont de plusieurs types : histologiques, fonctionnels sur l'animal entier, et fonctionnels sur muscles disséqués. Les tests sont effectués sur la souris mdx (génotype C57/BL6 mdx5cv), modèle murin de myopathie dégénérative. Ces tests sont notamment détaillés dans les publications suivantes auxquelles on pourra se référer : • De Luca A, et al. Am. J. Pathol. 2005 Feb; 166(2), 477-89. • Divet A, et al. Pflugers Arch. 2002 Aug; 444(5), 634-43. Epub 2002 Jul 10. • Rafael JA, et al. Mamm Genome. 2000 Sep; 11(9), 725-8.
Les composés sont administrés oralement aux souris dans leur nourriture. Les souris sont traitées de l'âge de 2 semaines à 6 semaines. Elles sont testées à 6 semaines.

[6] = system: souris mdx (génotype C57/BL6 mdx5cv); assay: mdx mouse: diaphragm necrosis (test of Raymackers et al.); assay type: in vivo; details: 15 mg/kg/jour oral in food; p<5%
Protocol: as §1, §2, §3

[7] = 0,1 mg/ml (0,3 mM) in culture agar
[8] = 0,05 mg/ml (0,15 mM) in culture agar
[9] = 4 mg/ml (10 mM) in culture agar
[10] = 0,1 mg/ml (0,2 mM) in culture agar

## CN(C)CCC=C1c2ccccc2CCc2ccccc21 [Amytriptyline chlorhydrate, amitriptyline]
[1]; [7]
  Diminution de la dégénérescence en %: 61%
  Pourcentage d'animaux paralysés à J7: 52%

## CNCCCN1c2ccccc2CCc2ccccc21 [Desipramine chlorhydrate, désipramine]
[1]; [7]
  Diminution de la dégénérescence en %: 58%
  Pourcentage d'animaux paralysés à J7: 58%

## CNCCC(Oc1ccc(C(F)(F)F)cc1)c1ccccc1 (stereo not shown) [Fluoxetine chlorhydrate, fluoxétine]
[1]; [8]
  Diminution de la dégénérescence en %: 51%
  Pourcentage d'animaux paralysés à J7: 60%
[2]; 11 mg/kg/jour oral in food
  réduction du nombre de fibres centronucléées: ~20%

## CN(C)CCCN1c2ccccc2CCc2ccccc21 [Imipramine chlorhydrate, imipramine]
[1]; [7]
  Diminution de la dégénérescence en %: 37%
  Pourcentage d'animaux paralysés à J7: 65%
[3]
  protéolyse: 20 % de la protéolyse du témoin
[4]
  Réduction de la dispersion de taille des fibres (marqueur de dégénérescence): 26%
[5]; tested at 6 weeks
  Augmentation de la tension développée par le muscle EDL sur animaux vivants: 20%
  Augmentation du score avec le test d'agrippement: 48%
[5]; triton-skinned fibres
  Augmentation de la tension maximale développée par le muscle isolé: 50%

## NCCc1c[nH]c2ccc(O)cc12 [Sérotonine, 5-hydrotryptamine]
[1]; [9]
  Diminution de la dégénérescence en %: 73%
  Pourcentage d'animaux paralysés à J7: 41%
[1]; result in words
  dégénérescence musculaire: diminue également la dégénérescence musculaire
[3]
  protéolyse: 20 % de la protéolyse du témoin

## CC(CN(C)C)CN1c2ccccc2CCc2ccccc21 (stereo not shown) [Trimipramine maleate, trimipramine]
[1]; [10]
  Diminution de la dégénérescence en %: 53%
  Pourcentage d'animaux paralysés à J7: 60%
[6]
  nécrose du diaphragme: réduit la nécrose du diaphragme
[2]; 15 mg/kg/jour oral in food, result in words
  nombre de fibres centronucléées: réduit
